Experimental findings from patent publication US4431809A, “Antibiotic A-33853 derivatives” (Eli Lilly and Company, priority 1982, dated 1984) are described below.

Each structure is given as a SMILES string. In brackets after ≈: the same amount, converted by molar mass. Where two headings read alike, the source gives them in different places. A value given as a limit tells only on which side of the number the result lay.

The subject of data set [1] is Eimeria tenella. Nature of the data set: In vitro activity against Eimeria tenella. The class given is cell-based. Particulars: in words.
Data set [2] relates to Mycoplasma gallisepticum. In words: In vitro MIC, bacteria pathogenic to animals. It is filed as cell-based. Particulars: Mycoplasmoides gallisepticum. As for the experimental part:
(§1) Antibiotic A-33853 was also tested in vitro to determine the MIC in μg./ml. against a number of bacterial organisms pathogenic to animals.

The subject of data set [3] is Salmonella dublin. Nature of the data set: In vitro MIC, bacteria pathogenic to animals. The class given is cell-based. Particulars: Salmonella enterica. As for the experimental part: as §1
In data set [4] the test system is Pseudomonas (animal). Nature of the data set: In vitro MIC, bacteria pathogenic to animals. It is filed as cell-based. As for the experimental part:
as §1

The test system of data set [5] is Pasteurella multocida (turkey). Nature of the data set: In vitro MIC, bacteria pathogenic to animals. The class given is cell-based. As for the experimental part: as §1
Data set [6] relates to Mycoplasma hyopneumoniae. In words: In vitro MIC, bacteria pathogenic to animals. Particulars: Mesomycoplasma hyopneumoniae. It is filed as cell-based. As for the experimental part: as §1
The subject of data set [7] is Mycoplasma synoviae. Nature of the data set: In vitro MIC, bacteria pathogenic to animals. Particulars: Mycoplasmopsis synoviae. It is filed as cell-based. As for the experimental part: as §1
Data set [8] relates to Streptococcus sp. Nature of the data set: In vitro MIC, bacteria pathogenic to animals. The class given is cell-based. As for the experimental part: as §1
Data set [9] concerns Bordetella bronchiseptica. In words: In vitro MIC, bacteria pathogenic to animals. It is filed as cell-based. As for the experimental part:
as §1

For data set [10], the system named is Pasteurella multocida (bovine). In words: In vitro MIC, bacteria pathogenic to animals. The class given is cell-based. As for the experimental part:
as §1

The test system of data set [11] is Escherichia coli. Nature of the data set: In vitro MIC, bacteria pathogenic to animals. The class given is cell-based. As for the experimental part:
as §1

Data set [12] deals with Pseudomonas (fish). Nature of the data set: In vitro MIC, bacteria pathogenic to animals. The class given is cell-based. As for the experimental part:
as §1

Data set [13] concerns Staphylococcus sp. Nature of the data set: In vitro MIC, bacteria pathogenic to animals. The class given is cell-based. As for the experimental part:
as §1

Data set [14] relates to Mycoplasma hyorhinis. In words: In vitro MIC, bacteria pathogenic to animals. The class given is cell-based. As for the experimental part: as §1
In data set [15] the test system is Aeromonas liquefaciens. In words: In vitro MIC, bacteria pathogenic to animals. It is filed as cell-based. Particulars: Aeromonas hydrophila. As for the experimental part:
as §1

Data set [16] has as its system Staphylococcus aureus 3074. Nature of the data set: Agar-dilution screening (ICS). The note with it: benzylpenicillin resistant. It is filed as cell-based.
Data set [17] concerns mosquito. In words: Mosquito larvicide activity. It is filed as in vivo. The note with it: in words.
Data set [18] deals with Staphylococcus aureus 3130. Nature of the data set: Disc-plate screening. The class given is cell-based. The note with it: benzylpenicillin resistant, methicillin resistant, read-out: Zone Diameter. As for the experimental part:
(§2) Agar plates, inoculated with the test organism, were used; 6 mm. discs (0.02 ml. capacity) were saturated from log 2 dilutions of the antibiotic solution. Disc content was 1/5 or 1/50 of the concentration of the solution used, i.e., disc content of […] 30 μg. was obtained from a solution of 1500 μg./ml. concentration.

Data set [19] has as its system Streptococcus pyogenes C203. In words: Disc-plate screening. It is filed as cell-based. Particulars: read-out: Zone Diameter. As for the experimental part:
as §2

Data set [20] has as its system Staphylococcus aureus 3074. In words: Disc-plate screening. It is filed as cell-based. Particulars: benzylpenicillin resistant, read-out: Zone Diameter. As for the experimental part: as §2
Data set [21] relates to Staphylococcus aureus 3055. In words: Disc-plate screening. Particulars: benzylpenicillin-susceptible, read-out: Zone Diameter. It is filed as cell-based. As for the experimental part:
as §2

In data set [22] the test system is Trichomonas vaginalis. In words: Tube-dilution test, Trichomonas vaginalis. It is filed as cell-based. The note with it: for MIC: Trichomonas vaginalis, tube-dilution test, T. vaginalis, read-out: minimal inhibitory concentration (MIC); for in vitro activity against Trichomonas vaginalis: in words.
Data set [23] concerns Maryland B influenza virus. Nature of the data set: In vitro antiviral activity, Maryland B influenza virus. The class given is cell-based. Particulars: in words.
Data set [24] relates to Salmonella typhosa SA12. In words: Agar-dilution screening (ICS). Particulars: Salmonella enterica.
Data set [25] has as its system Staphylococcus aureus 3055. Nature of the data set: Agar-dilution screening (ICS). The class given is cell-based. The note with it: benzylpenicillin-susceptible.
A short description of data set [26]: Acute toxicity in the mouse, IP. The note with it: in vivo.
The nature of data set [27]: physchem. The note with it: 66% dimethylformamide in water.
A short description of data set [28]: Solubility. It is filed as physicochemical.
For data set [29] the following is noted: 66 percent aqueous dimethylformamide.
The subject of data set [30] is Staphylococcus epidermidis 222. The class given is cell-based. Particulars: agar-dilution, 24 hours.
Data set [31] has as its system Staphylococcus aureus X400. It is filed as cell-based. The note with it: agar-dilution, 24 hours.
The test system of data set [32] is Streptococcus sp. Group D 9960. It is filed as cell-based. Particulars: agar-dilution, 24 hours.
Data set [33] has as its system Streptococcus pyogenes C203. The class given is cell-based. Particulars: agar-dilution, 24 hours.
The subject of data set [34] is Streptococcus pneumoniae Park I. It is filed as cell-based. The note with it: 24 h.
The subject of data set [35] is Staphylococcus aureus V41. The class given is cell-based.
Data set [36] deals with Haemophilus influenzae C.L. It is filed as cell-based. The note with it: agar-dilution, 24 hours.
Data set [37] concerns Streptococcus sp. Group D X66. The class given is cell-based.
Data set [38] concerns Staphylococcus epidermidis EPI1. It is filed as cell-based. Particulars: EPI1, 24 h.
Data set [39] relates to Haemophilus influenzae 76. The class given is cell-based. The note with it: agar-dilution, 24 hours.
Where [40] appears, read: alkaline solutions and most organic solvents.

For the compound `O=C(Nc1c(O)cccc1-c1nc2c(C(=O)O)cccc2o1)c1ncccc1O` [A-33853, 2-[3-hydroxy-2-[[(3-hydroxy-2-pyridinyl)carbonyl]amino]phenyl]-4-benzoxazolecarboxylic acid], the “in vitro activity against Eimeria tenella” value in data set [1] is “active in vitro”. Moreover, the MIC in [2] is 1.56 µg/mL (≈ 3.99 µM); in [3], greater than 50 µg/mL; in data set [4], greater than 50 µg/mL; in data set [5], 6.25 µg/mL (≈ 16 µM); in data set [6], less than 0.78 µg/mL; in data set [7], 1.56 µg/mL (≈ 3.99 µM). Also, the MIC in data set [8] was 6.25 µg/mL (≈ 16 µM); in [9], greater than 50 µg/mL; in [10], 1.56 µg/mL (≈ 3.99 µM); in data set [11] it was greater than 50 µg/mL; in [12], 50 µg/mL (≈ 128 µM); in [13], 3.12 µg/mL (≈ 7.97 µM). In addition, the MIC in [14] is 1.56 µg/mL (≈ 3.99 µM); in data set [15], 3.12 µg/mL (≈ 7.97 µM); in [16], 2 µg/mL (≈ 5.11 µM); in data set [22] it was less than 0.975 µg/mL; in data set [24], 2 µg/mL (≈ 5.11 µM); in [25] it was 2 µg/mL (≈ 5.11 µM). Further, in data set [17], the mosquito larvicide activity entry is “active as a mosquito larvicide”. For the same compound, the zone of inhibition at 30 µg/disc in data set [18] (30 μg./disc) amounted to 13.2 mm; in [19] (30 μg./disc), 0 mm; in [20] (30 μg./disc) it was 10.4 mm; in data set [21] (30 μg./disc) it was 10 mm. Moreover, the zone of inhibition at 300 µg/disc in data set [18] (300 μg./disc) was found to be 13.4 mm; in data set [19] (300 μg./disc), 8 mm; in data set [20] (300 μg./disc), 11.6 mm; in data set [21] (300 μg./disc) it was 11 mm. The “in vitro activity against Trichomonas vaginalis” value in [22] is recorded as “active in vitro”. Further, the “growth inhibition / activity in vitro” value in data set [23] is “inhibits the growth in vitro”. The LD50 in data set [26] was greater than 300 mg/kg. The pKa is roughly 7.25 in data set [27] (pH 5, pKa (first titratable group)); roughly 10 in data set [27] (pH 5, pKa (second titratable group)); roughly 12.2 in data set [27] (pH 5, pKa (third titratable group)). The solubility entry in data set [28] (acetone, methanol, ethyl acetate, tetrahydrofuran, chloroform, and water) was “less soluble”; in [28] (organic solvent or mixture, soluble in dimethylsulfoxide, pyridine, and 0.1 N sodium hydroxide, read-out: solubility) it was no less than 5000 µg/mL.

Regarding `CC(=O)OC(=O)c1cccc2oc(-c3cccc(OC(C)=O)c3N(C(C)=O)C(=O)c3ncccc3OC(C)=O)nc12` [tetraacetyl A-33853, 2-[2-[acetyl[[3-(acetyloxy)-2-pyridinyl]carbonyl]amino]-3-(acetyloxy)phenyl]-4-benzoxazolecarboxylic acid, anhydride with acetic acid], the titratable groups result in data set [29] is listed as “no titratable groups”. Moreover, in [22], the MIC was found to be 125 µg/mL (≈ 223 µM) and the “in vitro activity against Trichomonas vaginalis” value is recorded as “active in vitro”. Moreover, in data set [23], the “growth inhibition / activity in vitro” value is “active in vitro”. Also, the solubility result in [28] (acetone, methanol, ethyl acetate, tetrahydrofuran, water, dimethyl sulfoxide, 0.1 N aqueous NaOH, 0.1 N aqueous HCl) is “insoluble, or only sparingly soluble”. Moreover, the solubility in data set [28] (organic solvent or mixture, soluble in pyridine and chloroform, read-out: solubility) is no less than 1000 µg/mL.

In the case of `CC(=O)Oc1cccnc1C(=O)Nc1c(OC(C)=O)cccc1-c1nc2c(C(=O)O)cccc2o1` [diacetyl derivative], the MIC was 4 µg/mL (≈ 8.41 µM) in data set [30]; 16 µg/mL (≈ 33.7 µM) in data set [31]; greater than 128 µg/mL in data set [32]; 8 µg/mL (≈ 16.8 µM) in data set [33]; 8 µg/mL (≈ 16.8 µM) in [34]; 16 µg/mL (≈ 33.7 µM) in data set [35] (V41, 24 h). The MIC was 4 µg/mL (≈ 8.41 µM) in data set [36], greater than 128 µg/mL in data set [37] (24 h), 8 µg/mL (≈ 16.8 µM) in [38] and 64 µg/mL (≈ 135 µM) in data set [39]. For the same compound, in [27] (pH 4.92, pKa), the pKa was 6.8. The solubility result in [28] (setting [40]) was “soluble”; in [28] (hydrocarbon solvents and water), “insoluble”.

As for `CC(=O)Oc1cccnc1C(=O)N(C(C)=O)c1c(OC(C)=O)cccc1-c1nc2c(C(=O)O)cccc2o1` [triacetyl derivative], the MIC in data set [30] was 4 µg/mL (≈ 7.73 µM); in data set [31], 64 µg/mL (≈ 124 µM); in [32] it was greater than 128 µg/mL; in data set [33], 8 µg/mL (≈ 15.5 µM); in data set [34], 32 µg/mL (≈ 61.8 µM); in data set [35] (V41, agar-dilution, 24 hours, read-out: MIC) it was 32 µg/mL (≈ 61.8 µM). The MIC in data set [36] was 4 µg/mL (≈ 7.73 µM); in data set [37] (agar-dilution, 24 hours, read-out: MIC) it was greater than 128 µg/mL; in [38] (read-out: MIC) it was 16 µg/mL (≈ 30.9 µM); in data set [39] it was 64 µg/mL (≈ 124 µM). The compound also gave a pKa in data set [27] (pH 4.7, pKa) of 6.85. Further, the solubility result is “soluble” in data set [28] (setting [40]); “insoluble” in data set [28] (hydrocarbon solvents and water).

As a reminder, the LD50 is the dose at which mortality reaches 50%. A low value points to a more toxic substance. As a reminder, the pKa is the pH at which an ionisable group is half protonated. A lower pKa goes with a stronger acid or weaker base. The term solubility denotes the dissolved amount per volume that the medium holds.
